These results are taken from patent US20250161307A1, “PYRAZOLOPYRIMIDINES AS MODULATORS OF SPERMINE OXIDASE” (Janssen Pharmaceutica NV, priority 2022, published 2025).

In one assay the target is SMOX (Homo sapiens (Human), UniProt Q9NWM0). As to the kind of experiment: Human SMOX assay (HyPerBlu chemiluminescent detection of hydrogen peroxide). To be noted: 2.5 nM full length hSMOX, spermine substrate, 1 h at room temperature, luminescence read; read-out: SMOx_IC50. It is filed as biochemical. As to the method: (§1) The direct detection of hydrogen peroxide produced from the enzymatic reaction of hSMOX or hPAOX in a biochemical assay format was measured using HyPerBlu (Lumigen, Southfield, MI), a small molecule boronate probe that reacts with hydrogen peroxide to generate a chemiluminescent signal. Inhibition of hSMOX or hPAOX enzyme results in a decrease in luminescence.
SMOX, sequence (Q9NWM0 whole entry): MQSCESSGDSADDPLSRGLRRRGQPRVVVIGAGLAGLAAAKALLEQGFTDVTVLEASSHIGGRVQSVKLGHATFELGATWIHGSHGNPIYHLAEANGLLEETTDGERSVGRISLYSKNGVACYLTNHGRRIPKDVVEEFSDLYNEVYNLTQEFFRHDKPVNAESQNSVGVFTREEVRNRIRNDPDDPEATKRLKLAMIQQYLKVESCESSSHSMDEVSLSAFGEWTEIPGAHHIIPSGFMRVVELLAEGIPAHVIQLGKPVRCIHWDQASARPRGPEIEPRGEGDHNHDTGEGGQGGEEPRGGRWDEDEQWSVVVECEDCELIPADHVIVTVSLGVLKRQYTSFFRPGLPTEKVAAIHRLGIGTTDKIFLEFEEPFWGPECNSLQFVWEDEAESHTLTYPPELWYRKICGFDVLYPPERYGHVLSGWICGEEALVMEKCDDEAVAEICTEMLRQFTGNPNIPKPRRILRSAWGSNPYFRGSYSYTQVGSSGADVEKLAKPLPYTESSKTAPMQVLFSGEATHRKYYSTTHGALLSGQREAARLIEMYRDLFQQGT
Test compounds (75 nL) dissolved in DMSO were added to a 384-well white assay plate (Greiner Bio-one, catalog #784075) using an ECHO Acoustic Dispenser (Labcyte). Each compound was serially diluted 3-fold in DMSO to prepare an 11-point dose response curve (columns 1-22). Column 23 and 24 contained 75 nL of 2 mM chlorhexidine and DMSO, respectively, to represent the 100% inhibited versus the neutral control reactions.
Subsequently, 3 μL/well of the substrate solution prepared in assay buffer (10 mM Hepes, pH 7.4, 150 mM NaCl, 1 mM EGTA, 0.01% Pluronic F-127, 0.05% ovalbumin) was dispensed into the assay plate followed by 3 μL/well of full length hSMOX enzyme with an N-terminal His tag from E. coli prepared in assay buffer to initiate the reactions. After a 1 h incubation at room temperature, 6 μL/well of HyPerBlu was added. After a 30 min incubation, the hydrogen peroxide product generated from the hSMOX reactions was measured using an endpoint luminescence read on the PHERAStar FS/FSX microplate reader (BMG LABTECH).
The final assay conditions included 10 mM Hepes, pH 7.4, 150 mM NaCl, 1 mM EGTA, 0.01% Pluronic F-127, 0.05% ovalbumin, 2.5 nM hSMOX, 30 µM spermine, and 1.25% DMSO.
Dose-response curves were fit and compound IC50 values were determined using Genedata Screener (Genedata AG).

In the next assay the target is hPAOX (Homo sapiens (Human), UniProt Q6QHF9). As to the kind of experiment: Human PAOX assay (HyPerBlu chemiluminescent detection of hydrogen peroxide). It is filed as biochemical. The settings on record: 60 pM recombinant PAOX, 20 μM N-acetylspermine substrate. Here is the method: as §1
hPAOX, sequence (Q6QHF9 whole entry): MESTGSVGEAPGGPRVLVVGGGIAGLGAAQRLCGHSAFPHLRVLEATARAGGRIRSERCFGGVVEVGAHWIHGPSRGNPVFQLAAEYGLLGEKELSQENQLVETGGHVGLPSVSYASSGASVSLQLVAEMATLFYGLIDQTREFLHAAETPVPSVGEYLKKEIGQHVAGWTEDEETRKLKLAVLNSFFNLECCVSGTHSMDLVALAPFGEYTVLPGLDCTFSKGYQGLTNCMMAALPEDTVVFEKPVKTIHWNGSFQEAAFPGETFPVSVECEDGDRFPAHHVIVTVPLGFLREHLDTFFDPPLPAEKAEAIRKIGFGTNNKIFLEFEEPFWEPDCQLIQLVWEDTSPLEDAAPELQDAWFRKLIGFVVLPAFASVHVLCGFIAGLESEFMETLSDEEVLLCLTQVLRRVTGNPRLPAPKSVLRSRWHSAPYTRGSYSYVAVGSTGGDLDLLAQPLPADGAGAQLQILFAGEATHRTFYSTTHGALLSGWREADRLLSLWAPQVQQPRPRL
The hPAOX assay was run and the data analyzed similarly to the hSMOX assay described above, except the reactions contained 60 pM recombinant PAOX with an N-terminal His tag expressed from sf9 insect cells and used 20 μM N-acetylspermine as the substrate.

As to `CCN1CCC[C@H]1CNC(=O)c1cc2nc(-c3ccccc3)cc(-c3ccccc3)n2n1` [Example 14, (S)—N-((1-Ethylpyrrolidin-2-yl)methyl)-5,7-diphenylpyrazolo[1,5-a]pyrimidine-2-carboxamide], the figures for the IC50 on SMOX and at hPAOX were 401 nM and 2440 nM, respectively.

Take `O=C(NC1CCN(Cc2ccccc2)C1)c1cc2nc(-c3ccccc3)cc(-c3ccccc3)n2n1` (centres unmarked) [Example 16, N-(1-Benzylpyrrolidin-3-yl)-5,7-diphenylpyrazolo[1,5-a]pyrimidine-2-carboxamide]: the IC50 on SMOX came out at 412 nM; at hPAOX, 4360 nM.

`CN1CCC(NC(=O)c2cc3nc(-c4ccccc4)cc(-c4ccccc4)n3n2)CC1` [Example 17, N-(1-Methylpiperidin-4-yl)-5,7-diphenylpyrazolo[1,5-a]pyrimidine-2-carboxamide]: the figures for the IC50 at SMOX and at hPAOX were 606 nM and 10400 nM, respectively.

Consider `O=C(NCC1CCN(C2CC2)C1)c1cc2nc(-c3ccccc3)cc(-c3ccccc3)n2n1` (centres unmarked) [Example 22, N-((1-Cyclopropylpyrrolidin-3-yl)methyl)-5,7-diphenylpyrazolo[1,5-a]pyrimidine-2-carboxamide], for which the IC50 at SMOX is 691 nM; at hPAOX it was 535 nM.

Regarding `CN1CCC(CNC(=O)c2cc3nc(-c4ccccc4)cc(-c4ccccc4)n3n2)CC1` [Example 24, N-((1-Methylpiperidin-4-yl)methyl)-5,7-diphenylpyrazolo[1,5-a]pyrimidine-2-carboxamide], the figures for the IC50 at SMOX and on hPAOX were 907 nM and 1940 nM, respectively.

As to `O=C(NCCc1ncc[nH]1)c1cc2nc(-c3ccccc3)cc(-c3ccccc3)n2n1` [Example 25, N-(2-(1H-Imidazol-2-yl)ethyl)-5,7-diphenylpyrazolo[1,5-a]pyrimidine-2-carboxamide], the IC50 was found to be 253 nM on SMOX and 35 nM at hPAOX.

For `O=C(NCCCNc1ccccn1)c1cc2nc(-c3ccccc3)cc(-c3ccccc3)n2n1` [Example 26, 5,7-Diphenyl-N-(3-(pyridin-2-ylamino)propyl)pyrazolo[1,5-a]pyrimidine-2-carboxamide], the results for the IC50 at SMOX and on hPAOX were 324 nM and 22 nM, respectively.

Consider `O=C(NCCNc1ccccn1)c1cc2nc(-c3ccccc3)cc(-c3ccccc3)n2n1` [Example 28, 5,7-Diphenyl-N-(2-(pyridin-2-ylamino)ethyl)pyrazolo[1,5-a]pyrimidine-2-carboxamide], for which the IC50 is 156 nM at SMOX and 85 nM on hPAOX.

As to `CN1CC(CNC(=O)c2cc3nc(-c4ccccc4)cc(-c4ccccc4)n3n2)C1` [Example 29, N-((1-Methylazetidin-3-yl)methyl)-5,7-diphenylpyrazolo[1,5-a]pyrimidine-2-carboxamide], the IC50 on SMOX worked out at 480 nM; at hPAOX, 1760 nM.

As to `O=C(NCCCCN1CCCC1)c1cc2nc(-c3ccccc3)cc(-c3ccccc3)n2n1` [Example 30, 5,7-Diphenyl-N-(4-(pyrrolidin-1-yl)butyl)pyrazolo[1,5-a]pyrimidine-2-carboxamide], the IC50 on SMOX came to 297 nM; on hPAOX it was 129 nM.

For `O=C(NCCCc1cccnc1)c1cc2nc(-c3ccccc3)cc(-c3ccccc3)n2n1` [Example 31, 5,7-Diphenyl-N-(3-(pyridin-3-yl)propyl)pyrazolo[1,5-a]pyrimidine-2-carboxamide], the IC50 at SMOX is 900 nM; at hPAOX it was 2100 nM.

In the case of `CN(CCCNC(=O)c1cc2nc(-c3ccccc3)cc(-c3ccccc3)n2n1)c1ccccn1` [Example 32, N-(3-(Methyl(pyridin-2-yl)amino)propyl)-5,7-diphenylpyrazolo[1,5-a]pyrimidine-2-carboxamide], the IC50 on SMOX came to 850 nM; on hPAOX it was 6220 nM.

In the case of `CN(C)CC(C)(C)CNC(=O)c1cc2nc(-c3ccccc3)cc(-c3ccccc3)n2n1` [Example 33, N-(3-(Dimethylamino)-2,2-dimethylpropyl)-5,7-diphenylpyrazolo[1,5-a]pyrimidine-2-carboxamide], the IC50 is 314 nM on SMOX and above 31200 nM on hPAOX.

As to `O=C(NCCc1c[nH]cn1)c1cc2nc(-c3ccccc3)cc(-c3ccccc3)n2n1` [Example 34, N-(2-(1H-Imidazol-4-yl)ethyl)-5,7-diphenylpyrazolo[1,5-a]pyrimidine-2-carboxamide], the IC50 at SMOX is 262 nM; on hPAOX, 11 nM.

For `O=C(NCCCN1CCC1)c1cc2nc(-c3ccccc3)cc(-c3ccccc3)n2n1` [Example 35, N-(3-(Azetidin-1-yl)propyl)-5,7-diphenylpyrazolo[1,5-a]pyrimidine-2-carboxamide], the IC50 on SMOX was found to be 523 nM; on hPAOX, 362 nM.

For the molecule `O=C(NCCN1CCC1)c1cc2nc(-c3ccccc3)cc(-c3ccccc3)n2n1` [Example 36, N-(2-(Azetidin-1-yl)ethyl)-5,7-diphenylpyrazolo[1,5-a]pyrimidine-2-carboxamide], the IC50 on SMOX is 360 nM; on hPAOX it was 995 nM.

As for `O=C(NC1CCCC(n2ccnc2)C1)c1cc2nc(-c3ccccc3)cc(-c3ccccc3)n2n1` (centres unmarked) [Example 37, N-(3-(1H-Imidazol-1-yl)cyclohexyl)-5,7-diphenylpyrazolo[1,5-a]pyrimidine-2-carboxamide], the IC50 came to 878 nM at SMOX and 12600 nM on hPAOX.

With `O=C(NCCc1ccncc1)c1cc2nc(-c3ccccc3)cc(-c3ccccc3)n2n1` [Example 38, 5,7-Diphenyl-N-(2-(pyridin-4-yl)ethyl)pyrazolo[1,5-a]pyrimidine-2-carboxamide], the IC50 at SMOX amounted to 4580 nM; on hPAOX, 1140 nM.

Regarding `O=C(NCCc1ccccn1)c1cc2nc(-c3ccccc3)cc(-c3ccccc3)n2n1` [Example 39, 5,7-Diphenyl-N-(2-(pyridin-2-yl)ethyl)pyrazolo[1,5-a]pyrimidine-2-carboxamide], the IC50 on SMOX worked out at 2750 nM; on hPAOX, 1420 nM.

On to `O=C(NCCc1ccccc1)c1cc2nc(-c3ccccc3)cc(-c3ccccc3)n2n1` [Example 40, N-Phenethyl-5,7-diphenylpyrazolo[1,5-a]pyrimidine-2-carboxamide], for which the IC50 at SMOX and on hPAOX was above 31200 nM throughout.

As to `O=C(NC1CCC1)c1cc2nc(-c3ccccc3)cc(-c3ccccc3)n2n1` [Example 41, N-Cyclobutyl-5,7-diphenylpyrazolo[1,5-a]pyrimidine-2-carboxamide], the IC50 at SMOX and at hPAOX was above 31200 nM throughout.

As for `CN1CC(C)(NC(=O)c2cc3nc(-c4ccccc4)cc(-c4ccccc4)n3n2)C1` [Example 42, N-(1,3-Dimethylazetidin-3-yl)-5,7-diphenylpyrazolo[1,5-a]pyrimidine-2-carboxamide], the results for the IC50 at SMOX and at hPAOX were 2210 nM and 6780 nM, respectively.

For the molecule `CN(C)CCN(C)C(=O)c1cc2nc(-c3ccccc3)cc(-c3ccccc3)n2n1` [Example 44, N-(2-(Dimethylamino)ethyl)-N-methyl-5,7-diphenylpyrazolo[1,5-a]pyrimidine-2-carboxamide], the IC50 was 7340 nM on SMOX and above 31200 nM at hPAOX.

Regarding `CN1CC(N(C)C(=O)c2cc3nc(-c4ccccc4)cc(-c4ccccc4)n3n2)C1` [Example 45, N-Methyl-N-(1-methylazetidin-3-yl)-5,7-diphenylpyrazolo[1,5-a]pyrimidine-2-carboxamide], the IC50 at SMOX worked out at 1820 nM; at hPAOX, 11600 nM.

Turning to `CN1CC(NC(=O)c2nn3c(-c4ccccc4)cc(-c4ccccc4)nc3c2I)C1` [Example 46, 3-Iodo-N-(1-methylazetidin-3-yl)-5,7-diphenylpyrazolo[1,5-a]pyrimidine-2-carboxamide], the IC50 at SMOX turned out to be 33 nM; on hPAOX it was 5410 nM.

Turning to `CN1CCC(NC(=O)c2nn3c(-c4ccccc4)cc(-c4ccccc4)nc3c2I)C1` (centres unmarked) [Example 47, 3-Iodo-N-(1-methylpyrrolidin-3-yl)-5,7-diphenylpyrazolo[1,5-a]pyrimidine-2-carboxamide], the values for the IC50 on SMOX and at hPAOX were 125 nM and 20600 nM, respectively.

As to `CN1CCC(C)(CNC(=O)c2nn3c(-c4ccccc4)cc(-c4ccccc4)nc3c2I)C1` (centres unmarked) [Example 48, N-((1,3-Dimethylpyrrolidin-3-yl)methyl)-3-iodo-5,7-diphenylpyrazolo[1,5-a]pyrimidine-2-carboxamide], the IC50 on SMOX amounted to 698 nM; at hPAOX it was 7590 nM.

For `CN1CC(NC(=O)c2nn3c(-c4ccccc4)cc(-c4ccccc4)nc3c2Cl)C1` [Example 49, 3-Chloro-N-(1-methylazetidin-3-yl)-5,7-diphenylpyrazolo[1,5-a]pyrimidine-2-carboxamide], the IC50 was 108 nM at SMOX and 9060 nM on hPAOX.
